According to US20260215420A1 (Solasta Bio Limited, priority 2022, published 2026):

Key:
Myzus persicae = assay: Leaf dip assay for aphids; format: in vivo; settings: unformulated peptide, compared to vehicle and Spirotetramat, up to 120 hours
Protocol: Leaf Dip Assay—Aphids or Plutella xylostella Based on IRAC susceptibility test method 019 (https://irac-online.org/methods/aphids-adultnymphs/). Fill a small 4 cm wide 3 cm high dish with a 1% agar solution (ensuring 1 cm gap between the agar and the lid) and leave to set. Dip a 2.5 cm leaf disc into 3 ml of treatment solution allowing the treatment to coat the leaf. Leave the disc to dry for 1 hour and place onto the set agar. Place insects (aphids or Plutella xylostella) onto each of the leaf discs. Each unit is sealed with a close-fitting, ventilated lid. Place the agar dishes in a small plastic tray lined with moist tissue paper and ensure the water trays in the bottom of the incubator are filled with clean water and place within the incubator. An assessment of mortality is made at 72, 96 and 120 hours. Leaf dip assays for aphids were performed with SB-P-65, and compared to a negative control vehicle and a current commercial insecticide Spirotetramat. The activity of SB-P-65 is shown in FIGS. 20 and 21; SB-P-65 has good activity whilst being eco-friendly and targeted to specific pests unlike broad spectrum chemical insecticides such as Spirotetramat. Leaf dip assays for aphids were performed with SB-P-66, and compared to a negative control vehicle and a current commercial insecticide Spirotetramat. […]

[1] = gut and MT tissue and contents of final-stage P. xylostella larvae in Schneider's medium; settings: Plutella xylostella, 25° C., up to 24 h
Spodoptera frugiperda = assay: Lepidoptera mortality assay (artificial diet); format: in vivo; settings: 1×10^−4 M in artificial diet, L1 larvae, 168 hrs, compared to vehicle and DDT
Excerpt: Lepidoptera Mortality Assay Against Spodoptera frugiperda Frontier Lepidoptera Artificial diet was made up by preparing agar at 1% and then mixing it with artificial diet powder. Peptide solution was aliquoted in 10 cells and diet poured straight onto it. The final concentration of the peptide was 1×10^−4 M, and each peptide was aliquoted in 10 cells. Once the diet solidified and cooled down, one L1 larvae was infested in each cell. The trays were sealed with heat and let larva were allowed to develop for 168 hrs. Finally, pupation and mortality were scored for. Lepidoptera mortality assays were performed with SB-P-70, and compared to a negative control vehicle and the insecticide dichlorodiphenyltrichloroethane (DDT). The activity of SB-P-70 is shown in FIG. 32; SB-P-70 has good activity whilst being eco-friendly and targeted to specific pests unlike broad spectrum chemical insecticides such as DDT.

[2] = format: in vitro ADME, Plutella xylostella
Protocol: Plutella xylostella Tissue Biostability Study of SB-P-70 and SB-P-103
SB-P-70 and SB-P-103 were incubated with the gut and MT tissue and contents of final-stage P. xylostella larvae in Schneider's medium at 25° C. Control samples were prepared with peptides in Schneider's medium with no tissue and tissue in Schneider's medium with no peptides. The condition of the peptides after incubation with the tissue was assessed by LC-MS at: 4 h; 8 h; 16 h; and 24 h time points (FIGS. 13 and 14).
In contrast, SB-P-103 remained 44% intact after 24 h tissue incubation.

Plutella xylostella = assay: Leaf dip assay for Plutella xylostella; format: in vivo; settings: unformulated peptide, compared to vehicle and Chlorantraniliprole
Protocol: Leaf Dip Assay—Aphids or Plutella xylostella Based on IRAC susceptibility test method 019 (https://irac-online.org/methods/aphids-adultnymphs/). Fill a small 4 cm wide 3 cm high dish with a 1% agar solution (ensuring 1 cm gap between the agar and the lid) and leave to set. Dip a 2.5 cm leaf disc into 3 ml of treatment solution allowing the treatment to coat the leaf. Leave the disc to dry for 1 hour and place onto the set agar. Place insects (aphids or Plutella xylostella) onto each of the leaf discs. Each unit is sealed with a close-fitting, ventilated lid. Place the agar dishes in a small plastic tray lined with moist tissue paper and ensure the water trays in the bottom of the incubator are filled with clean water and place within the incubator. An assessment of mortality is made at 72, 96 and 120 hours. Leaf dip assays for Plutella xylostella were performed with SB-P-70, and compared to a negative control vehicle and a current commercial insecticide Chlorantraniliprole. The activity of SB-P-70 is shown in FIG. 6; SB-P-70 has good activity whilst being eco-friendly and targeted to specific pests unlike broad spectrum chemical insecticides such as Chlorantraniliprole

For “H-PAFSSWG-NH2 [SB-P-66, Hy-PAFSSWG-[NH2]]”, the “activity against Myzus persicae (mortality)” value (Myzus persicae) was “good activity”.
For `CC(C)[C@H](NC(=O)C(NC(=O)[C@H](CCCCN)NC(=O)[C@H](CCC(N)=O)NC(=O)[C@@H](N)CCCNC(=N)N)[C@@H](C)O)C(=O)N[C@@H](Cc1ccccc1)C(=O)N[C@@H](CO)C(=O)N[C@@H](CO)C(=O)N[C@@H](Cc1c[nH]c2ccccc12)C(=O)NCC(N)=O` (stereo partly shown) [SB-P-65, Hy-RQKTVFSSWG-[NH2]], the “activity against Myzus persicae (mortality)” value (Myzus persicae) was “good activity”.
For H-KVKFSAWG-NH2, the cleaved bond [1] was “Ser5-Ala6, major”.
For “H-KVKFSAWG-NH2 [SB-P-70, Hy-KVKFSAWG-[NH2]]”, the “activity against Spodoptera frugiperda (pupation and mortality)” value (Spodoptera frugiperda) was “good activity”, the “condition of the peptide after incubation with the tissue” value [2] was “completely degraded” and the “site of proteolytic cleavage” value [2] was “between Ser5 and Ala6”. For the same compound, the “activity against Plutella xylostella (mortality)” value (Plutella xylostella) was “good activity”.
